From PMC5469522

Test: Non-covalent ring closure: intramolecular phenol OH...acceptor H-bond (folding of AD 2-mers; acceptor is phosphine oxide, pyridine or pyridine N-oxide). EMf = Kfold/K(A.D); Kfold inferred from NMR dilution Kobs(AD.AD) versus Kobs(AA.DD)
Conditions: the molecule shown is the open-chain precursor, toluene-d8 (C7-PO in CDCl3), 25.0 °C

In the case of `CCCCP(=O)(CCCC)c1cccc(C#Cc2cc(C#Cc3cccc(O)c3)cc(OCC[C@@H](C)CCC=C(C)C)c2)c1` [C7-PO (44), CDCl3], the ring closure, effective molarity (17-membered ring) is reported as 0 mM.
Compound `CCCCC(CC)COc1ccc(N(Cc2ccc(O)cc2)Cc2cc([N+](=O)[O-])ccc2OCC(CC)CCCC)cc1CN(Cc1ccncc1)c1ccc(OCC(CC)CCCC)c(C2OCCO2)c1` (stereo not shown) [C8-N (21)] has a ring closure, effective molarity (18-membered ring) of 0 mM.
Work on `CCCCC(CC)COc1ccc(N(Cc2ccc(O)cc2)Cc2cc([N+](=O)[O-])ccc2OCC(CC)CCCC)cc1CN(Cc1cc[n+]([O-])cc1)c1ccc(OCC(CC)CCCC)c(C2OCCO2)c1` (stereo not shown) [C8-NO (13)] yielded a ring closure, effective molarity (19-membered ring) of 0 mM.
`CCCCC(CC)COc1ccc(N(Cc2ccc(O)cc2)Cc2cc([N+](=O)[O-])ccc2OCC(CC)CCCC)cc1CN(Cc1ccc(OCP(=O)(C(C)(C)C)C(C)(C)C)cc1)c1ccc(OCC(CC)CCCC)c(C2OCCO2)c1` (stereo not shown) [C8-PO (16)] showed a ring closure, effective molarity (22-membered ring) of 7 mM.
With `CCCCP(=O)(CCCC)c1ccc(C[C@@H](CCSCC[C@H](CCSC(C)=O)Cc2ccc(O)cc2)CCSC(C)(C)C)cc1` [C9-PO (33)] the ring closure, effective molarity (21-membered ring) was 7 mM.
`CCCCC(CC)COc1cc(CN(Cc2ccccc2OC)c2ccc(O)cc2)cc(CN(Cc2ccccc2OC)c2ccc(OCP(=O)(C(C)(C)C)C(C)(C)C)cc2)c1` (stereo not shown) [N7-PO (29)] showed a ring closure, effective molarity (21-membered ring) of 15 mM.
Work on `CCCCC(CC)COc1cc(CN(Cc2ccccc2OC)c2ccc(OCP(=O)(C(C)(C)C)C(C)(C)C)cc2)c(OCC(CC)CCCC)cc1CN(Cc1ccccc1OC)c1ccc(O)cc1` (stereo not shown) [N8-PO (26)] yielded a ring closure, effective molarity (22-membered ring) of 3 mM.
